Laboratory results taken from publication PMC8522775, “Population Pharmacokinetics of Rezafungin in Patients with Fungal Infections” (Antimicrobial Agents and Chemotherapy, 2021).
Like-named read-outs stand apart in the source and are kept apart here. Numbered stars: 1 amine (or outer) side, 2 acyl side, 3 side chain; on linkers, the order of the positions; unused ones are H or OH. Bridge positions count the residues as written; N and C are the ends. Square brackets hold non-standard residues; d marks the D form. Peptide text beside a SMILES is read from it. * marks the point of attachment. Orn(4R-OH,5R-OCH2CH2NMe3+) = C[N+](C)(C)CCO[C@@H](N[*:3])[C@H](O)C[C@H](N[*:1])C(=O)[*:2]; pTerphenylCO(4''-OnC5H11) = CCCCCOc1ccc(-c2ccc(-c3ccc(C(=O)*)cc3)cc2)cc1; hTyr(3S-OH,4S-OH) = N[C@H](C(=O)O)[C@H](O)[C@@H](O)c1ccc(O)cc1; Pro(3S-OH,4S-Me) = C[C@H]1CN[C@H](C(=O)O)[C@H]1O; Hyp = O=C(O)[C@@H]1C[C@@H](O)CN1

Columns and labels:
[1] = Population PK model of rezafungin in plasma, pooled phase 1 and phase 2 data; assay type: in vivo, human
Excerpt: Data were pooled from three phase 1 studies (NCT02516904, NCT02551549, and CD101.IV.1.06) and one phase 2 study (NCT02734862). The protocols and informed consent were reviewed and approved by an appropriate institutional review board before subject enrollment. The studies were designed and monitored in compliance with the ethical principles of good clinical practice and in accordance with the Declaration of Helsinki.
The first phase 1 study (NCT2516904) was a single ascending dose (SAD) study in which subjects received a single rezafungin dose of 50, 100, 200, or 400 mg or matching placebo administered as a 60-min IV infusion. A total of 32 subjects were enrolled and randomized evenly to each of the four dosing cohorts (6 active and 2 placebo in each cohort). Blood samples for determination of rezafungin plasma concentrations were obtained prior to the dose and at 0.25, 0.5, 1, 1.5, 2, 4, 6, 8, 12, 24, 48, and 120 h after the start of infusion and on days 7, 14 (±1 day), and 21 (±1 day). The second phase 1 study (NCT02551549) was a multiple ascending dose (MAD) study. A total of 24 subjects were enrolled and randomized evenly to one of three cohorts. In cohorts 1 and 2, subjects received 100 or 200 mg of rezafungin (or matching placebo in a 3:1 ratio in each cohort), respectively, as 60-min IV infusions on days 1 and 8. In cohort 3, subjects received 400 mg (or matching placebo in a 3:1 ratio), respectively, as 60-min IV infusions on days 1, 8, and 15. Blood samples were collected predose and at 0.5, 1, 1.5, 2, 4, 6, 8, 12, 24, 48, and 120 h after the start of each infusion and on days 7, 14 (±1 day), 21 (±1 day), and 35 (±1 day, cohort 3 only). The third phase 1 study (CD101.IV.1.06) was designed to assess the impact of single, ascending doses of rezafungin on QTcF interval in healthy subjects. Subjects were randomized to receive either rezafungin (600 or 1,400 mg IV at a rate of 400 mg/h, n = 12 per dose group), moxifloxacin (400 mg IV, n = 24), or placebo. Only data from subjects randomized to rezafungin were included in the population PK analysis data set. Blood samples for determination of rezafungin plasma concentrations were obtained prior to the dose and at 1.5, 2.5, 3.5, 5, 6, 8, 12, 24, 48, 96, and 168 h after the start of the infusion.
(§1) The phase 2 study (NCT02734862, also known as the STRIVE trial) was a multicenter, randomized, double-blind study designed to assess the safety and efficacy of rezafungin, compared to that of caspofungin followed by optional oral fluconazole step-down, in the treatment of patients with candidemia and/or invasive candidiasis. Treatment groups included two dose regimens of rezafungin IV once weekly (400 mg IV or 400 mg IV on week 1 followed by 200 mg on subsequent weeks) or caspofungin IV once daily. Additional doses after day 14 were allowed based on criteria defined in the study protocol. Blood samples for determination of rezafungin plasma concentrations were obtained within 10 min before the end of infusion and either at 4 and 8 h on day 1 (as specified in the original protocol) or from 15 min to 1 h after the end of infusion and 2 to 12 h after the end of infusion on day 1 (as modified by protocol amendment, designed to better inform the population PK model). Additional samples were obtained with random clinical blood draws on day 2 and day 4, as well as prior to the dose on day 8 and day 15 (or day 14 if no day 15 dose was administered).
All blood samples were assayed for plasma rezafungin concentration using a liquid chromatography coupled to tandem mass spectrometry (LC/MS/MS) method that has been described previously ([11], [12]). In brief, the calibration range for the assay was 10.0 ng/ml to 10,000 ng/ml, and interassay accuracy and precision were excellent (accuracy ranged from 0.3 to 4.3%, and precision ranged from 2.7 to 5.0%). The same assay was used for all four studies. […]

[2] = with normal serum albumin, cited from earlier work
Excerpt: Consistent with the previous population PK model, which had relationships between body weight and all PK parameters ([12]), body size in the form of BSA was predictive of the variability in Vc, Vp1, and Vp2. However, body size was not a significant predictor of the variability in rezafungin CL in this population. One possible explanation for the lack of a body size relationship for CL is the fact that sex is predictive of the IIV in CL but none of the vo ...

[3] = Post hoc rezafungin exposure and PK parameter estimates for patients of the STRIVE trial; assay type: in vivo, human; settings: n = 68, plasma; for AUC0–168 / Cmax / Cmin: after first dose and prior to the second dose; for AUC0–168: from individual post hoc parameters; for Cmax: highest predicted concentration; for Cmin: lowest predicted concentration; for clearance / Vd: human, iv; for clearance: individual post hoc estimates from final model; for Vd: volume of distribution at steady state, individual post hoc estimates, read-out: Vss
Method: as §1
All blood samples were assayed for plasma rezafungin concentration using a liquid chromatography coupled to tandem mass spectrometry (LC/MS/MS) method that has been described previously ([11], [12]). In brief, the calibration range for the assay was 10.0 ng/ml to 10,000 ng/ml, and interassay accuracy and precision were excellent (accuracy ranged from 0.3 to 4.3%, and precision ranged from 2.7 to 5.0%). The same assay was used for all four studies.
Patient-specific estimates of rezafungin exposure (AUC from zero to tau [AUC0−τ], maximum concentration of drug [Cmax], and minimum concentration of drug [Cmin]) were derived using individual post hoc PK parameter estimates obtained from the final model. The PK parameters and the mrgsolve package in R ([22]) were then used to simulate predicted plasma rezafungin concentration-time data for each subject for the duration of time between the first and second doses. Cmax and Cmin were defined as the highest and lowest predicted concentrations over that first dosing interval, respectively, while AUC0-τ was calculated via numerical integration of the concentration-time profile. Summary statistics for the rezafungin exposures and key PK parameters (i.e., CL and volume of distribution at steady state [Vss]) were calculated for the patients from the STRIVE trial.

[4] = final population PK model, covariate effect: (BSA/1.83)^power
[5] = STRIVE patients, median (range)

In the case of `CCCCCOc1ccc(-c2ccc(-c3ccc(C(=O)N[C@H]4C[C@@H](O)[C@@H](OCC[N+](C)(C)C)NC(=O)[C@@H]5[C@@H](O)[C@@H](C)CN5C(=O)[C@H]([C@@H](C)O)NC(=O)[C@H]([C@H](O)[C@@H](O)c5ccc(O)cc5)NC(=O)[C@@H]5C[C@@H](O)CN5C(=O)[C@H]([C@@H](C)O)NC4=O)cc3)cc2)cc1` [rezafungin] ({pTerphenylCO(4''-OnC5H11)}-[Orn(4R-OH,5R-OCH2CH2NMe3+)]T[Hyp][hTyr(3S-OH,4S-OH)]T[Pro(3S-OH,4S-Me)]; lactam 1-C), the “Vc, proportional change in infected patients” value ([1]; final population PK model, covariate effect of infection status on Vc) is reported as 0.478, the “Vp2, proportional change in infected patients” value ([1]; final population PK model, covariate effect of infection status on Vp2) is reported as 1.69 and the Vp1-BSA power [1, 4] is reported as 1.14. For the same compound, the Vp2-BSA power [1, 4] was 2.47, the Vp1-albumin power ([1]; final population PK model, covariate effect: (albumin/4.2)^power) was −0.829 and the Vc-BSA slope ([1]; final population PK model, covariate effect: Vc + slope x (BSA - 1.83)) was 7.54. For the same compound, the “CLd1, population mean final estimate” value ([1]; final population PK model, distributional clearance to peripheral compartment 1) was 18.2 L/h, the “CLd2, population mean final estimate” value ([1]; final population PK model, distributional clearance, peripheral compartment 2) was 0.541 L/h and the “CLd3, population mean final estimate” value ([1]; final population PK model, distributional clearance, peripheral compartment 3) was 0.0743 L/h. For the same compound, the “Vp1, population mean final estimate” value ([1]; final population PK model, volume of distribution for peripheral compartment 1, albumin 4.2, BSA 1.83) was 14.6 L, the “Vp2, population mean final estimate” value ([1]; final population PK model, volume of distribution for peripheral compartment 2, BSA 1.83, not infected) was 6.69 L and the “Vc, population mean final estimate” value ([1]; final population PK model, volume of distribution for the central compartment, BSA 1.83, not infected) was 11.1 L. The “Vp3, population mean final estimate” value ([1]; final population PK model, volume of peripheral compartment 3) was 13.6 L, the clearance ([1]; human, final linear four-compartment population PK model, zero-order IV input, pooled healthy volunteers (phase 1) and infected patients (phase 2), 135 subjects, 50 to 1,400 mg IV, plasma LC/MS/MS, NONMEM FOCE-I, albumin 4.2, read-out: CL, population mean final estimate (converted)) was 4.23 mL/min and the protein binding ([2]; humans) was 97.4%. For the same compound, the protein binding ([2]; rats) was 99.2%, the “AUC0–168” value [3, 5] was 673 (372–1,210) mg·h/liter and the Cmax ([3]; STRIVE patients, mean (SD), SD) was 16.4 (4.38) mg/liter. For the same compound, the Cmax [3, 5] was 16.4 (7.10–26.0) mg/liter, the Cmin ([3]; STRIVE patients, mean (SD), SD) was 2.07 (0.659) mg/liter and the Cmin [3, 5] was 1.90 (1.04–3.83) mg/liter. For the same compound, the clearance ([3]; STRIVE patients, mean (SD), SD) was 6.08 mL/min, the clearance [3, 5] was 5.75 mL/min and the Vd ([3]; STRIVE patients, mean (SD), SD) was 61 L. For the same compound, the Vd [3, 5] was 52.7 L and the “AUC0–168” value ([3]; patients with candidemia and/or invasive candidiasis, STRIVE trial, 400 mg IV week 1, mean (SD), SD) was 709 (184) mg·h/liter.
